From patent publication US20240239762A1, “NOVEL HETEROCYCLIC COMPOUNDS” (FLORATEK PHARMA S.A., priority 2021, published 2024)
Entries after “also recorded” stand apart in the source; their conditions may differ. Like-named read-outs stand apart in the source and are kept apart here.

Columns and labels:
[1] = tested on: C. elegans; test: Lifespan assay on the Automated Lifespan Machine; format: in vivo, Caenorhabditis elegans; conditions: 50 μM; for Max life span: 95th percentile of lifespans in each group; for Mean life span: calculated from the area under the survival curve; for Median life span: day 1 set at day 1 of adulthood, time at which 50% of the worms have died
From the text: To prevent chemical modification or metabolism of the test article by the food bacteria, worms were fed on a lawn of UV-killed bacteria (UV-i bacteria). An overnight culture of E. coli strain WP-2 was pelleted, washed, filtered, and irradiated. A suspension of UV-i bacteria was spotted on NGM agar containing Streptomycin to inhibit the growth of contaminating bacteria. The quantity and distribution of food bacteria were calibrated to ensure adequate access to food for the duration of assay while maintaining visibility of the worms.
Test compounds were soluble in 100% DMSO. The compounds were dissolved in a working solution and then combined directly with the food bacteria before seeding on agar plates. The food spots are dried slowly, allowing the compound to diffuse into the food bacteria and the agar for at least 24 hours before worms were introduced.
The ALM used by InVivoBiosystems is based on the Caenorhabditis elegans lifespan machine published by Stroustrup et. Al [Stroustrup, N. et al. The Caenorhabditis elegans Lifespan Machine. Nat Methods 10, 665-670 (2013)], with proprietary modifications to improve temperature stability and image acquisition. The scanner unit consisted of a modified EPSON V850 and images were processed and analyzed using the ALM software. The machine time-of-death calls are trained and validated using the “storyboarding” feature of the ALM software.
The lifespan assay was designed and performed according to published and validated methods [Amrit, F. R. G., Ratnappan, R., Keith, S. A. & Ghazi, A. The C. elegans lifespan assay toolkit. Methods 68, 465-475 (2014).] using a modified version of the Automated Lifespan Machine 7.
The lifespan assay was initiated by expanding all replicate groups to more than 1000 worms, then synchronizing by bleaching and allowing larval worms to hatch and arrest. To suppress progeny, worms were transferred to media containing 5-Fluorodeoxyuridine (FUdR) within 54-60 hours post-plating. Worms were inspected 24 and 48 hours after this transfer to confirm infertility. Finally, the worms were inspected for general health and morphology before transferring to scanner plates. The scanner plates were transferred to scanners for automated imaging on day 3 of adulthood.
Plates were immobilized inverted on the bed of an Automated Lifespan Machine which scanned two images per hour of the plates continuously for the next 40 days.
Time of death calls exported from the ALM software was analyzed and plotted using the Lifelines software package developed by Cam Davidson-Pilon et. al [Davidson-Pilon, C et. al. Lifelines survival analysis package. CamDavidsonPilon/lifelines: vo. 25-9.]. Additional analysis was performed using the OASIS2 analysis software6.
Worm movement was tracked from the images acquired by the ALM during the lifespan assay. Worm size and movement features were extracted and analyzed using custom software.

[2] = tested on: C. elegans; test: Global gene expression by mRNA sequencing (RNA-Seq), GO enrichment and pathway mapping; format: in vivo, Caenorhabditis elegans
Description: To identify potential mechanisms of action through which SND305 and SND306 could affect aging, global gene expression was analyzed by mRNA sequencing (RNA-Seq). Worms were treated on the same media and conditions as the lifespan assay, then young worms were harvested at adult day 3 and aged worms harvested at adult day 10. Three replicates of treated samples were analyzed.
More than 300 day 1 adult worms per replicate were harvested, cleaned by filtration, and frozen at −80° in Trizol. To extract RNA, samples were thawed, vigorously vortexed, and processed using the Direct-zol RNA Miniprep Kit (Zymo Research). All samples exceeded the threshold for RNA quantity and quality.
The total RNA was then enriched for poly-mRNA using oligo(dT) paramagnetic beads. DNA libraries were then constructed from this input mRNA using the NEBNext Ultra™ II RNA Library Prep Kit. This created a ready-to-sequence dsDNA library that retained the strand-specific information in the original mRNA. These libraries were then further tested by the Qubit for concentration and the Agilent 2100 for library size distribution and quality. In order to properly pool the libraries and load them onto sequencing lanes to ensure the correct number of reads per sample, an even more precise quantification of the library was done via qPCR, and the samples were loaded onto the NovaSeq 6000 platform for a paired-end sequencing run of 150 bp for each end (PE150). The loading concentrations were designed to obtain at least 6.0 Gb (which is the number of billion bases of raw data, determined by the number of reads multiplied by the length of each read).
The raw data set was analyzed for • 1. The distribution of base quality along the length of the sequencing read • 2. The distribution of error rate along the length of the sequencing read • 3. The distribution of A/T/G/C bases along the length of the sequencing read • 4. The distribution of raw data filtering results based on the following three criteria: • a. Removing reads containing adapter sequence • b. Removing reads with N>10% (where N means “base cannot be determined”) • c. Removing reads with a low quality (Qscore<=5) for 50% or more of its total bases
Multidimensional scaling makes it possible to see strong patterns in large, complex data sets by reducing the data to two or three dimensions. When the data is plotted along these few dimensions, the samples form clustered based on their overall similarity to one another. The distance between samples is calculated based on the Biological Coefficient of Variation (BCV). Greater differences were observed between all conditions at Day 10 than at Day 3. To identify genes that are differentially expressed upon treatment with SND305 and SND306, the gene counts for each of the treated samples were compared against the control.
GO enrichment analysis is a common approach that identifies functional groups form lists of differentially expressed genes. Genes are annotated based on functional categories (gene ontologies) that are further categorized by biological process (BP), molecular function (MF), or cellular compartment (CC). A comparison is made between the likelihood of seeing genes in that category (ontology) being enriched or depleted in the list of DEGs when compared to a random selection of genes.
In order to identify which cellular pathways were most likely modulated by treatment with SND305 and SND306 and gain insight into how these pathways might contribute to mechanism of action (MoA), the genes differentially expressed after SND305 and SND306 treatment were mapped to core established longevity pathways from the literature. The mapping was then expanded to intersecting and supporting pathways. This placed the transcriptomic data within the context of well-characterized biological pathways, particularly several related to longevity.

[3] = tested on: C. elegans strain SD1347; test: Age-related sarcopenia model: muscle mitochondrial fragmentation scoring; format: in vivo, Caenorhabditis elegans; conditions: day 11; 50 μM; ANOVA and multiple comparisons (FIG. 8)
Description: C. elegans strain SD1347 confirmed to have nuclear and mitochondrial GFP labeling in muscle was obtained from the Caenorhabditis Genetic Center.
Synchronized worm populations were administered a single concentration of 50 μM SND compounds by exposure on NGM plates starting the day before adulthood. All plates contained 50 μM 5-Fluorodeoxyuridine (FUdR) to prevent progeny production. Animals were immobilized using NemaGel (InVivo Biosystems) and imaged within 1 hour. Worms were alive throughout imaging. For each worm imaged, one head and one tail image was collected from regions excluding the pharynx, vulva, and tip of the tail. For day 1, a single session imaged a minimum of 5 worms per condition.
For aged worms, two total biological replicates were collected, each with 5-6 worms imaged per condition. Images were obtained using a Nikon Eclipse Ti2 spinning disk confocal microscope. After processing, each image was scored blindly in replicate groups by six viewers.
Stock solutions of SND compounds were prepared by dissolving to 50 mM in DMSO. Working solutions were prepared such that the final concentration of compound in the total volume of the solid media would be 50 μM, and the DMSO concentration would not exceed 0.1% (e.g. 10 μl in a 10 mL dish). […]

[4] = tested on: C. elegans; conditions: cited from earlier work
[5] = aged (Day 10) worms, weighted by the p-value

Structure (SMILES): CO[C@H]1C[C@@H]2CC[C@@H](C)[C@@](O)(O2)C(=O)C(=O)N2CCCC[C@H]2C(=O)O[C@H]([C@H](C)C[C@@H]2CC[C@@H](O)[C@H](OC)C2)CC(=O)[C@H](C)/C=C(\C)[C@@H](O)[C@@H](OC)C(=O)[C@H](C)C[C@H](C)/C=C/C=C/C=C/1C [Rapamycin, reference compound]
- Max life span [1]: 33.0 days
- Mean life span [1]: 26.2 days
- Median life span [1]: 26.5 days

Structure (SMILES): CC(C)NC(=O)Oc1ccc2c(c1)COc1cc(OC(=O)NC(C)C)ccc1-2 [SND306]
- Effect on lifespan [1]: increased the life span with statistical significance
- Max life span [1]: 34.6 days
- Mean life span [1]: 25.8 days
- Median life span [1]: 26.6 days
- Noteable GO categories enriched or depleted, Down ([2]; Day 3): hydrolase activity
- Noteable GO categories enriched or depleted, Up ([2]; Day 3): structural constituent of cuticle (e.g. collagen), immune response, lipid
- Noteable GO categories enriched or depleted, Down ([2]; Day 10): extracellular region, immune response, response to other organism
- Noteable GO categories enriched or depleted, Up ([2]; Day 10): enrichment in genes involved with axon development and regeneration; also recorded: nervous system development, neurogenesis, regulation of gene expression
- Expression of genes specifically involved in axon regeneration ([2]; Day 10 (FIGS. 4 and 5)): upregulation
- Differentially expressed genes above threshold (volcano plot) ([2]; Day 10, P-value<0.05 and fold change >2.0): a large number of DEGs above threshold
- CTSB expression, fold down- [2, 5]: > 5 fold
- CTSD expression, fold down- [2, 5]: > 5 fold
- LAMP expression, fold up- [2, 5]: > 5 fold
- Expression of cathepsin orthologs cpr-1, cpr-4, cpr-9 ([2]; day 3 (FIGS. 2 and 3)): upregulated
- Insulin Signaling (IIS) Pathway components daf-18, akt-1, and daf-16 ([2]; day 3 (FIGS. 2 and 3)): slight modulation
- Sum of the mitochondrial fragmentation scores per image vs control [3]: significantly less fragmentation than the control

Structure (SMILES): O=c1oc2cc(O)ccc2c2ccc(O)cc12 [Urolithin A, urolithin A]
- Sum of the mitochondrial fragmentation scores per image vs control [3]: did not reach statistical significance
- Accumulation of dysfunctional mitochondria with age [4]: prevented the accumulation of dysfunctional mitochondria with age
- Effect on lifespan [4]: extended lifespan
